Assay results reported in PubChem BioAssay AID2060485 (Molecular Pharmacology Branch, DTP, NCI, 2025).
pIC50: −log10 of the molar value.

Tested on: A375 multi-cell spheroids with HUVEC/MSC, viability
Experiment: Anticancer human tumor A375 cell line growth inhibition [GQUAD];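 also: spheroids exposed to compounds for seven days before readout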
Conditions: for pIC50: curve of first compound; for viability, T/C: stronger effect = lower value
Description: DNA G-quadruplex Stabilizer Agents in Combinations in Complex Spheroids
A high-throughput screen of multi-cell type tumor spheroids was designed to identify active combinations of DNA G-quadruplex stabilizer agents and targeted small molecules. Complex spheroids include a stromal component modeled by human endothelial cells (HUVEC) and fibroblasts modeled by human mesenchymal stem cells (MSCs). The concentration ranges selected for each drug and investigational agent were based upon clinically achievable concentrations if the clinical Cmax of the agent was known.
Compounds. The drugs and investigational agents: pidnarulex (CX-5461; NSC782164), APTO-253 (NSC789042), BRACO-19 (NSC847499), peposertib (NSC802822), ceralasertib (NSC780249), elimusertib (NSC800525), camonsertib (NSC841442), AZD-1390 (NSC803789), olaparib (NSC753686), talazoparib (NSC767125), ART-558 (NSC835418), sotorasib (NSC818433), MRTX-1133 (NSC836407), SN-38 (NSC673596), topotecan (NSC609699), etoposide (NSC141540), doxorubicin (NSC123127), gemcitabine (NSC613327), 5-fluorouracil (NSC19893), paclitaxel (NSC125973), vemurafenib (NSC761431), panobinostat (NSC761190), R-306465 (JNJ-16241199; NSC773264), adavosertib (NSC754352), TP-3654 (NSC805149), carboplatin (NSC241240), KSQ-4279 (NSC840948), and staurosporine (NSC755774) were obtained from the National Cancer Institute (NCI) Developmental Therapeutics Program Chemical Repository (34). The FDA-approved anticancer drug set is available from the NCI Developmental Therapeutics Program. […] The stock solutions were prepared in dimethyl sulfoxide (DMSO, Sigma-Aldrich, St. Louis, MO, cat. D2650) at 800-fold the tested concentration and stored at -70 degrees C prior to their use. All drugs and investigational agents were tested over a range starting from a high concentration at or near the clinical Cmax and decreasing in half-log increments. If the clinical Cmax for an agent had not been determined, the highest concentration tested was 10 microM.
2.3 Cell Culture. All cells were maintained in an incubator at 37 degrees C and 5% CO2 with 95% humidity. The PDC lines were cultured according to standard operating procedures established by the NCI PDMR. All PDCs were thawed and cultured in Matrigel-coated flasks prepared with a working solution of 1X Ham's F-12 nutrient mix, without supplementation (Invitrogen, cat. 11765054), 100 U/mL penicillin-streptomycin (Invitrogen, cat. 15140122), and 2.5% Matrigel (Corning Inc., cat. 354248) for the first three passages. The 857933-349-R-J2-PDC line was cultured in 6C/Colon 1B media, which includes advanced DMEM/F-12 (Thermo Fisher Scientific, cat. 12634028), 10 mM HEPES (Thermo Fisher Scientific, cat. 15630080), 1X GlutaMAX supplement (Thermo Fisher Scientific, cat. 35050061), 0.1 mg/mL primocin (InvivoGen, cat. ant-pm-2), 10% defined fetal bovine serum, heat inactivated (HyClone Laboratories Inc., cat. SH30070.03HI), 50% L-WRN conditioned media (ATCC, cat. CRL-3276), 1.25 mM N-Acetyl-L-cysteine (Sigma-Aldrich, cat. A9165), 10 mM nicotinamide (Sigma-Aldrich, cat. N0636), 1X B-27 supplement (Thermo Fisher Scientific, cat. 17504044), 1X N-2 supplement (Thermo Fisher Scientific, cat. 17502048), 10 microM Y-27632 dihydrochloride (Tocris Bioscience, cat. 1254), and 50 ng/mL human EGF recombinant protein (Thermo Fisher Scientific, cat. PHG0311). The 485176-168-R4-J1-PDC line was cultured in Panc media, which includes all 6C/Colon 1B media components plus 100 ng/mL human FGF-10 (Thermo Fisher Scientific, cat. 100-26), 500 nM SB-431542 (Selleckchem, cat. S1067), and gastrin (Tocris, cat. 3006).
[…]

[1] = second compound 0.0316 µM, first compound 0.0316 µM
[2] = second compound 0.0316 µM, first compound 0.1 µM
[3] = second compound 0.0316 µM, first compound 0.316 µM
[4] = second compound 0.0316 µM, first compound 1 µM
[5] = second compound 0.0316 µM, first compound 3.16 µM
[6] = second compound 0.0316 µM, first compound 10 µM
[7] = second compound 0.1 µM, first compound 0.0316 µM
[8] = second compound 0.1 µM, first compound 0.1 µM
[9] = second compound 0.1 µM, first compound 0.316 µM
[10] = second compound 0.1 µM, first compound 1 µM
[11] = second compound 0.1 µM, first compound 3.16 µM
[12] = second compound 0.1 µM, first compound 10 µM
[13] = second compound 0.316 µM, first compound 0.0316 µM
[14] = second compound 0.316 µM, first compound 0.1 µM
[15] = second compound 0.316 µM, first compound 0.316 µM
[16] = second compound 0.316 µM, first compound 1 µM
[17] = second compound 0.316 µM, first compound 3.16 µM
[18] = second compound 0.316 µM, first compound 10 µM
[19] = second compound 1 µM, first compound 0.0316 µM
[20] = second compound 1 µM, first compound 0.1 µM
[21] = second compound 1 µM, first compound 0.316 µM
[22] = second compound 1 µM, first compound 1 µM
[23] = second compound 1 µM, first compound 3.16 µM
[24] = second compound 1 µM, first compound 10 µM
[25] = second compound 3.16 µM, first compound 0.0316 µM
[26] = second compound 3.16 µM, first compound 0.1 µM
[27] = second compound 3.16 µM, first compound 0.316 µM
[28] = second compound 3.16 µM, first compound 1 µM
[29] = second compound 3.16 µM, first compound 3.16 µM
[30] = second compound 3.16 µM, first compound 10 µM
[31] = second compound 10 µM, first compound 0.0316 µM
[32] = second compound 10 µM, first compound 0.1 µM
[33] = second compound 10 µM, first compound 0.316 µM
[34] = second compound 10 µM, first compound 1 µM
[35] = second compound 10 µM, first compound 3.16 µM
[36] = second compound 10 µM, first compound 10 µM

In the case of `C=CC(=O)N1CCN(c2nc(=O)n(-c3c(C)ccnc3C(C)C)c3nc(-c4c(O)cccc4F)c(F)cc23)C(C)C1` (centres undefined) + Cc1cnc(CNC(=O)c2c(=O)c3ccc(N4CCCN(C)CC4)nc3n3c2sc2ccccc23)cn1, the pIC50 (second compound 0.0316 µM) was < 5.00, the pIC50 (second compound 0.1 µM) was < 5.00 and the pIC50 (second compound 0.316 µM) was < 5.00. For the same compound, the pIC50 (second compound 1 µM) was > 7.50, the pIC50 (second compound 3.16 µM) was > 7.50 and the pIC50 (second compound 10 µM) was > 7.50. It also gave a viability, T/C [1] of 94.5%, a viability, T/C [2] of 103% and a viability, T/C [3] of 109%. It also gave a viability, T/C [4] of 106%, a viability, T/C [5] of 145% and a viability, T/C [6] of 129%. The viability, T/C [7] was 86.7%, the viability, T/C [8] was 77.3% and the viability, T/C [9] was 92.9%. For the same compound, the viability, T/C [10] was 82.3%, the viability, T/C [11] was 95% and the viability, T/C [12] was 83.2%. The viability, T/C [13] was 51.6%, the viability, T/C [14] was 56.6% and the viability, T/C [15] was 55.4%. For the same compound, the viability, T/C [16] was 57%, the viability, T/C [17] was 59.2% and the viability, T/C [18] was 58%. For the same compound, the viability, T/C [19] was 42.4%, the viability, T/C [20] was 47.9% and the viability, T/C [21] was 48.8%. For the same compound, the viability, T/C [22] was 48.6%, the viability, T/C [23] was 45.1% and the viability, T/C [24] was 40.2%. The viability, T/C [25] was 34.9%, the viability, T/C [26] was 32.5% and the viability, T/C [27] was 32.7%. The viability, T/C [28] was 36.4%, the viability, T/C [29] was 37.6% and the viability, T/C [30] was 34.1%. It also gave a viability, T/C [31] of 28.8%, a viability, T/C [32] of 32.9% and a viability, T/C [33] of 33%. For the same compound, the viability, T/C [34] was 33.5%, the viability, T/C [35] was 31.6% and the viability, T/C [36] was 28.5%.
With `CC1COCCN1c1cc(-c2ccnn2C)c2ccnc(-c3ccn[nH]3)c2n1` (centres undefined) + Cc1cnc(CNC(=O)c2c(=O)c3ccc(N4CCCN(C)CC4)nc3n3c2sc2ccccc23)cn1 the pIC50 (second compound 0.0316 µM) was 6.55, the pIC50 (second compound 0.1 µM) was 7.13 and the pIC50 (second compound 0.316 µM) was > 7.50. The pIC50 (second compound 1 µM) was > 7.50, the pIC50 (second compound 3.16 µM) was > 7.50 and the pIC50 (second compound 10 µM) was > 7.50. It also gave a viability, T/C [1] of 102%, a viability, T/C [2] of 69.3% and a viability, T/C [3] of 51.9%. For the same compound, the viability, T/C [4] was 28.3%, the viability, T/C [5] was 13.8% and the viability, T/C [6] was 13.9%. It also gave a viability, T/C [7] of 67.5%, a viability, T/C [8] of 37.5% and a viability, T/C [9] of 35.9%. It also gave a viability, T/C [10] of 23.3%, a viability, T/C [11] of 13.7% and a viability, T/C [12] of 9.98%. For the same compound, the viability, T/C [13] was 39.5%, the viability, T/C [14] was 33.8% and the viability, T/C [15] was 27.6%. For the same compound, the viability, T/C [16] was 21.7%, the viability, T/C [17] was 13.9% and the viability, T/C [18] was 10.4%. The viability, T/C [19] was 38.2%, the viability, T/C [20] was 35% and the viability, T/C [21] was 29.6%. The viability, T/C [22] was 21.5%, the viability, T/C [23] was 12.7% and the viability, T/C [24] was 11.3%. It also gave a viability, T/C [25] of 30.8%, a viability, T/C [26] of 30.2% and a viability, T/C [27] of 30.7%. For the same compound, the viability, T/C [28] was 22.4%, the viability, T/C [29] was 13.2% and the viability, T/C [30] was 10%. For the same compound, the viability, T/C [31] was 26.7%, the viability, T/C [32] was 27.9% and the viability, T/C [33] was 24.1%. The viability, T/C [34] was 16.9%, the viability, T/C [35] was 13.3% and the viability, T/C [36] was 9.71%.
